For assay [1], the target named is T1, neuronal nicotinic receptors (α4β2 subtype high affinity site) (Rattus norvegicus, UniProt P09483+P12390).
T1 construct: The forebrain (÷cerebellum) from a male Wistar rat (150-250 g) is homogenized; from tissue; host or cells: rat forebrain (without cerebellum) membrane homogenate
Kind of assay: In vitro inhibition of 3H-epibatidin binding. As for the experimental part:
The high affinity binding site for ^3H-epibatidin is most certainly binding to the α4β2 subtype of nicotinic receptors. The identity of the low affinity site is still unknown; does it represent a second nicotinic receptor or a second site in the same receptor.
Tissue preparation: Preparations are performed at 0-4° C. unless otherwise indicated. The forebrain (÷cerebellum) from a male Wistar rat (150-250 g) is homogenized for 10-20 sec in 20 ml Tris, HCl (50 mM, pH 7.4) using an Ultra-Turrax homogenizer. The tissue suspension is centrifuged at 27,000×g for 10 min. The supernatant is discarded and the pellet is washed three times by centrifugation at 27,000×g for 10 min in 20 ml fresh buffer, and the final pellet is resuspended in fresh buffer (400 ml per g of original tissue) and used for binding assays.
Assay: Aliquots of 2.0 ml homogenate are added to 0.100 ml of test solution and 0.100 ml of ^3H-epibatidin (0.3 nM, final concentration), mixed and incubated for 60 min at room temperature. Non-specific binding is determined using (−)-nicotine (30 μM, final concentration). After incubation the samples are poured directly onto Whatman GF/C glass fibre filters (presoaked in 0.1% PEI for at least 20 min) under suction and immediately washed with 2×5 ml ice-cold buffer. The amount of radioactivity on the filters is determined by conventional liquid scintillation counting. Specific binding is total binding minus non-specific binding.

The target in assay [2] is nAChRs comprised of α4 and β2 subunits (Rattus norvegicus, UniProt P09483+P12390). Kind of assay: In vitro inhibition of 3H-cytisine binding. As for the experimental part: The predominant subtype with high affinity for nicotine is comprised of α4 and β2 subunits. nAChRs of the latter type can selectively be labelled by the nicotine agonist ^3H-cytisine.
Tissue Preparation: Preparations are performed at 0-4° C. unless otherwise indicated. […] The homogenate is centrifuged at 27,000×g for 10 min. The supernatant is discarded and the pellet is resuspended in fresh buffer and centrifuged a second time. The final pellet is resuspended in fresh buffer (35 ml per g of original tissue) and used for binding assays.
Assay: Aliquots of 500 μl homogenate are added to 25 μl of test solution and 25 μl of ^3H-cytisine (1 nM, final concentration), mixed and incubated for 90 min at 2° C. Non-specific binding is determined using (−)-nicotine (100 μM, final concentration). After incubation the samples are added 5 ml of ice-cold buffer and poured directly onto Whatman GF/C glass fibre filters under suction and immediately washed with 2×5 ml ice-cold buffer. The amount of radioactivity on the filters is determined by conventional liquid scintillation counting. Specific binding is total binding minus non-specific binding.

The target of assay [3] is nAChR formed by the α7 subunit isoform (Rattus norvegicus, UniProt Q05941). Kind of assay: biochemical. It counts as binding.
Where [4] appears, read: rat cerebral cortex homogenate, 1 nM 3H-cytisine, 90 min at 2° C., read-out: 3H-cytisine IC50.
The mark [5] stands for this setting: rat forebrain homogenate, 0.3 nM 3H-epibatidin, 60 min at room temperature, read-out: 3H-epibatidin IC50.

Like-named read-outs stand apart in the source and are kept apart here. A value given as a limit tells only on which side of the number the result lay.

A word on the IC50: it is the concentration at which inhibition is half-maximal.

Chain of nAChR formed by the α7 subunit isoform (Q05941 23-502): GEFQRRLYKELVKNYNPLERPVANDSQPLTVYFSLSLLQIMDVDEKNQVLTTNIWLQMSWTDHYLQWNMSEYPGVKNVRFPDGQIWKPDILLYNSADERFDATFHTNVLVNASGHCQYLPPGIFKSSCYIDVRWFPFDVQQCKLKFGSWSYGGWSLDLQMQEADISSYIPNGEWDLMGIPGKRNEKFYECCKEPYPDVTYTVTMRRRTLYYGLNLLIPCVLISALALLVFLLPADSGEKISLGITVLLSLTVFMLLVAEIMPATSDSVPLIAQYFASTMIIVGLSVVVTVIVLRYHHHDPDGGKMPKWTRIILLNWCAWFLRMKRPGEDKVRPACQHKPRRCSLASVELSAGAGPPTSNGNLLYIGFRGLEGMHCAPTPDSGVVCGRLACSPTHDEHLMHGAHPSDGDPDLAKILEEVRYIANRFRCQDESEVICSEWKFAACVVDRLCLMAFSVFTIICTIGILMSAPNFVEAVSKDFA
Chain of nAChRs comprised of α4 and β2 subunits (P09483 31-630): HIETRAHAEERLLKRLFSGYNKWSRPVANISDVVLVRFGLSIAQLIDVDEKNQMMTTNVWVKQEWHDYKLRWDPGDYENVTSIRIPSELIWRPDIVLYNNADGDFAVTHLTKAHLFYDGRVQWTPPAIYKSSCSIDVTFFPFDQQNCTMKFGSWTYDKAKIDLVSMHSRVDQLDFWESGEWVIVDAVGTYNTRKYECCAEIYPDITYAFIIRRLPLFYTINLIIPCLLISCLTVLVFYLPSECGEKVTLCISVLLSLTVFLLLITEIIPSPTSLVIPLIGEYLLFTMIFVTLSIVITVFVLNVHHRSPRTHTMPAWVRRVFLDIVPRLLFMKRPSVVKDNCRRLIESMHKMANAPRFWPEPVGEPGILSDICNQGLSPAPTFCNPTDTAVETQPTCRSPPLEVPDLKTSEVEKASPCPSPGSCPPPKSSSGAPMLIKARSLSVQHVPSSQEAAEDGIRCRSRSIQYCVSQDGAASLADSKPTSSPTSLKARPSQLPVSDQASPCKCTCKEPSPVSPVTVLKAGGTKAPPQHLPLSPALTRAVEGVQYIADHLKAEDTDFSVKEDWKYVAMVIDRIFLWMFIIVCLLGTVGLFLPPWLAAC
Chain of nAChRs comprised of α4 and β2 subunits (P12390 25-500): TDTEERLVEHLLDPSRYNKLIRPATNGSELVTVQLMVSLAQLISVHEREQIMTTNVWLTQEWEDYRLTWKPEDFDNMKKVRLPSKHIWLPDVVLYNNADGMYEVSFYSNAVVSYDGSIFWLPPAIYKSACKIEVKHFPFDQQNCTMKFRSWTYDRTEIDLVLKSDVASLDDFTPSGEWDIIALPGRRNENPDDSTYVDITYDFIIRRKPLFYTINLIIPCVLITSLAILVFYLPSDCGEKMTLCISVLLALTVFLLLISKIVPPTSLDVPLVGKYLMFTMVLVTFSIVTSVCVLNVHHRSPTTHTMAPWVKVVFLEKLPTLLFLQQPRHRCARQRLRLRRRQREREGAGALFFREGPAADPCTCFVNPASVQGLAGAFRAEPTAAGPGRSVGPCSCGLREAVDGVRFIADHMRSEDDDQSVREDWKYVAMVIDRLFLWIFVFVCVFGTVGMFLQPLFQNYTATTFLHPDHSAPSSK
T1 sequence (P09483 31-630): as the sequence (P09483 31-630) above
T1 sequence (P12390 25-500): as the sequence (P12390 25-500) above

With `CCCOc1cncc(N2CCCNCC2)c1` [Compound 10H, 1-(5-Propyloxy-3-pyridyl)-homopiperazine], the figures for the IC50 in assay [1], in assay [2] and in assay [3] were 5.4 nM, 0.9 nM and > 30000 nM, respectively.
In the same order, the values of `c1ncc(N2CCCNCC2)cc1OCC1CC1` [Compound 9H, 1-(5-Cyclopropylmethoxy-3-pyridyl)-homopiperazine] are 6 nM, 1 nM and > 30000 nM.
In the same order, the values of `CCOc1cncc(N2CCCNCC2)c1` [Compound 3H, 1-(5-Ethoxy-3-pyridyl)-homopiperazine] are 10 nM, 2 nM and 20000 nM.
Taken in the same sequence, the figures for `Clc1cncc(N2CCCNCC2)n1` [Compound 3K, 1-(6-Chloro-2-pyrazinyl)-homopiperazine] were 160 nM, 20 nM and 5600 nM.
As to `CCCCOc1cncc(N2CCNCC2)c1` [Compound 2D, 1-(5-Butoxy-3-pyridyl)piperazine], the half-inhibitory concentration (IC50) in assay [1] was 1400 nM; in assay [2] (setting [4]) it was 180 nM; in assay [3], > 30000 nM.
As for `Clc1ccc(N2CCCNCCC2)nn1` [Compound 7B, 1-(6-Chloro-3-pyridazinyl)-1,5-diazacyclooctane], the half-maximal inhibitory concentration (IC50) in assay [1] (setting [5]) came out at 150 nM; in assay [2] it was 30 nM; in assay [3] it was 460 nM.
In the same order, the values of `CCOc1cncc(N2CCCN(C)CC2)c1` [Compound 4E, 1-(5-Ethoxy-3-pyridyl)-4-methyl-homopiperazine] are 300 nM, 50 nM and > 30000 nM.
Consider `c1ccc2ncc(N3CCCNCC3)cc2c1` [Compound 2F, 1-(3-Quinolinyl)-homopiperazine], for which the IC50 in assay [1] was 84 nM; in assay [2], 6 nM; in assay [3] it was 5900 nM.
Turning to `CCCCCOc1cncc(N2CCCN(C)CC2)c1` [Compound 15E, 4-Methyl-1-(5-pentyloxy-3-pyridyl)-homopiperazine], the IC50 was 210 nM in assay [1] (setting [5]), 30 nM in assay [2] and > 30000 nM in assay [3].
Taken in the same sequence, the figures for `CN1CCCN(c2cncc(OC3CCCC3)c2)CC1` [Compound 25E, 1-(5-Cyclopentyloxy-3-pyridyl)-4-methyl-homopiperazine] were 610 nM, 80 nM and > 30000 nM.
Turning to `FC(F)(F)c1cncc(N2CCCNCC2)c1` [Compound 6K, 1-(5-Triflouromethyl-3-pyridyl)-homopiperazine], the 50% inhibitory concentration (IC50) is 40 nM in assay [1] (setting [5]), 9 nM in assay [2] (setting [4]) and 6400 nM in assay [3] (read-out: 3H-α-bungarotoxin IC50).
Take `C/C=C/Oc1cncc(N2CCCN(C)CC2)c1` [Compound 17E, trans-4-Methyl-1-(5-propyl-1-en-oxy-3-pyridyl)-homopiperazine]: the concentration for half-maximal inhibition (IC50) in assay [1] was 90 nM; in assay [2], 20 nM; in assay [3], > 30000 nM.
As to `COc1cncc(N2CCCN(C)C2)c1` [Compound 2M, 1-(5-Methoxy-3-pyridyl)-3-methyl-1,3-diazacyclohexane], the 50% inhibitory concentration (IC50) is 2700 nM in assay [1] (setting [5]), 90 nM in assay [2] and > 30000 nM in assay [3].
Consider `CCOc1cncc(N2CCN(CC)CC2)c1` [Compound 9D, 1-(5-Ethoxy-3-pyridyl)-4-ethyl-piperazine], for which the IC50 was 210 nM in assay [1], 70 nM in assay [2] and > 30000 nM in assay [3].
As for `CC(C)CCOc1cncc(N2CCCN(C)CC2)c1` [Compound 12E, 4-Methyl-1-[5-(3-methyl-butoxy)-3-pyridyl]-homopiperazine], the IC50 in assay [1] (setting [5]) was 270 nM; in assay [2], 55 nM; in assay [3], > 30000 nM.
Turning to `CN1CCN(c2cncc(Cl)c2)CC1` [Compound 5A, 1-(5-Chloro-3-pyridyl)-4-Methyl-piperazine], the concentration for half-maximal inhibition (IC50) in assay [1] was determined as 650 nM; in assay [2], 80 nM; in assay [3], 73400 nM.
`CN1CCCN(c2cncc(OCC3CCCCC3)c2)CC1` [Compound 14E, 1-(5-Cyclohexylmethoxy-3-pyridyl)-4-methyl-homopiperazine]: the IC50 in assay [1] was 480 nM; in assay [2] (setting [4]) it was 200 nM; in assay [3] it was > 30000 nM.
Turning to `COc1cncc(N2CCCNCCC2)c1` [Compound 6B, 1-(5-Methoxy-3-pyridyl)-1,5-diazacyclooctane], the results for the IC50 in assay [1], in assay [2] and in assay [3] were 3.2 nM, 1 nM and 2500 nM, respectively.
On to `CCCOc1cncc(N2CCCN(C)CC2)c1` [Compound 10E, 4-Methyl-1-(5-propyloxy-3-pyridyl)-homopiperazine], for which the IC50 is 290 nM in assay [1] (setting [5]), 60 nM in assay [2] and > 30000 nM in assay [3].
Taken in the same sequence, the figures for `CC(C)COc1cncc(N2CCCN(C)CC2)c1` [Compound 8E, 4-Methyl-1-[5-(2-methyl-propyloxy)-3-pyridyl]-homopiperazine] were 450 nM, 70 nM and > 30000 nM.
For the compound `c1ccc2nc(N3CCCNCC3)cnc2c1` [Compound 2L, 1-(2-Quinoxalinyl)-homopiperazine], the results for the half-inhibitory concentration (IC50) in assay [1], in assay [2] (setting [4]) and in assay [3] were 2000 nM, 260 nM and 27000 nM, respectively.
As to `CCOc1cncc(N2CCNCC2)c1` [Compound 1D, 1-(5-Ethoxy-3-pyridyl)piperazine], the concentration for half-maximal inhibition (IC50) is 1000 nM in assay [1], 500 nM in assay [2] (setting [4]) and > 30000 nM in assay [3].
Regarding `CN1CCCN(c2cncc(OCC3CC3)c2)CC1` [Compound 9E, 1-(5-Cyclopropylmethoxy-3-pyridyl)-4-methyl-homopiperazine], the values for the IC50 in assay [1] (setting [5]), in assay [2] and in assay [3] were 4800 nM, 78 nM and > 30000 nM, respectively.
`CN1CCCN(c2cnc3ccccc3c2)CC1` [Compound 2E, 4-Methyl-1-(3-quinolinyl)-homopiperazine]: the results for the IC50 in assay [1], in assay [2] (setting [4]) and in assay [3] were 4900 nM, 340 nM and 1800 nM, respectively.
Take `CCCCOc1cncc(N2CCCN(C)CC2)c1` [Compound 6E, 1-(5-Butoxy-3-pyridyl)-4-methyl-homopiperazine]: the 50% inhibitory concentration (IC50) in assay [1] (setting [5]) is 240 nM; in assay [2], 45 nM; in assay [3], > 30000 nM.
With `CN1CCCN(c2cncc(SCc3ccccc3)c2)CC1` [Compound 18E, 4-Methyl-1-(5-thiobenzyl-3-pyridyl)-homopiperazine], the half-inhibitory concentration (IC50) in assay [1] was 800 nM; in assay [2] (setting [4]), 600 nM; in assay [3] it was 15000 nM.
Turning to `COc1cncc(N2CCCNCC2)c1` [Compound 1H, 1-(5-Methoxy-3-pyridyl)-homopiperazine], the half-inhibitory concentration (IC50) worked out at 20 nM in assay [1], 2 nM in assay [2] and 3000 nM in assay [3].
In the same order, the values of `CCOc1cncc(N2CCN(C)CC2)c1` [Compound 7A, 1-(5-Ethoxy-3-pyridyl)-4-methyl-piperazine] are 90 nM, 6 nM and > 30000 nM.
For `c1ccc(-c2cncc(N3CCCNCC3)c2)cc1` [Compound 2H, 1-(5-Phenyl-3-pyridyl)-homopiperazine], the results for the IC50 in assay [1], in assay [2] (setting [4]) and in assay [3] were 20 nM, 3 nM and 37000 nM, respectively.
With `COc1cncc(N2CCCN(C)CC2)c1` [Compound 3E, 1-(5-Methoxy-3-pyridyl)-4-methyl-homopiperazine], the figures for the IC50 in assay [1] (setting [5]), in assay [2] and in assay [3] were 750 nM, 94 nM and 26000 nM, respectively.
For `Clc1ccc(N2CCCNCC2)nn1` [Compound 1K, 1-(6-Chloro-3-pyridazinyl)-homopiperazine], the figures for the IC50 in assay [1], in assay [2] and in assay [3] were 60 nM, 10 nM and 1400 nM, respectively.
Regarding `c1cncc(N2CCNCC2)c1` [Compound 1B, 1-(3-Pyridyl)-piperazine], the IC50 in assay [1] (setting [5]) was 630 nM; in assay [2] (setting [4]) it was 130 nM; in assay [3], > 30000 nM.
For the compound `Clc1ccc(N2CCCCNCC2)nn1` [Compound 8B, 1-(6-Chloro-3-pyridazinyl)-1,4-diazacyclooctane], the IC50 was found to be 920 nM in assay [1], 550 nM in assay [2] (setting [4]) and 5500 nM in assay [3].

Source of the values: US6897219B2, “Heteroaryl diazacycloalkanes, their preparation and use” (priority 1997, dated 2005).
